Legend:
Type in all cases: cell-based
RS4;11 cells = experiment: Thiazolyl blue cell proliferation assay in RS4;11 cells; details: Homo sapiens, RS4;11 acute lymphoblastic leukemia cells, 48 hours, read-out: IC50 (nM) for inhibiting the proliferation of RS4;11 cells
Text: (§1) The cell lines RS4;11 (human acute lymphocytic leukemia cells), Molt-4 cells (human acute lymphocytic leukemia cells), MV4;11 (human myeloid monocytic leukemia cells), and Light II cells were commercially available or purchased from ATCC (American Type Culture Collection) and routinely cultured according to instructions.
1) Study on the proliferation inhibition effects induced by the compounds of the present disclosure designed based on ABT199/263 against BCL-XL-dependent RS4;11 cells:
(§2) The specific steps were as follows: RS4;11 cells were seeded at a density of 3×10^4 cells/well in 90 μL of serum-containing RPMI-1640 culture medium. DT2216 and the compounds of the present disclosure were added to the cell suspension at corresponding concentration gradients. DT2216 and DMSO were used as positive and vehicle control, respectively. The positive control and negative control were treated with the same treatment method as the compounds of the present disclosure. After treating the cells with the compounds of the present disclosure for 48 hours, thiazole blue solution (5 mg/mL) was added at 10 μL/well to the cell suspension, followed by incubation for 3 hours at 37° C. in an incubator with 5% CO2. Then, triple solution (0.1 g/mL SDS, 5% isopropyl alcohol, 10 mM hydrochloric acid) was added, followed by incubation for 4-6 hours at 37° C. in an incubator with 5% CO2. After confirming that all the crystal violets were dissolved under inverted biological microscopy, the absorbance was measured at 490 nm using an Epoch microplate reader (Biotek Corporation). The growth inhibition of the compounds of the present disclosure on the cells was plotted by GraphPad Prism 8 software, and the IC50 values of the compounds of the present disclosure were calculated therefrom. The experiment had 3 replicates per group and was repeated at least three times.
We conducted dose-dependent experiments on the designed and synthesized compounds of the present disclosure in RS4;11 cells, which are highly sensitive to BCL-XL inhibitors. The cells were treated with 7 different concentrations (starting at the highest concentration of 1000 nM or 100 nM; 10-fold serial dilutions) of the compounds for 48 hours, and then tested using the thiazolyl blue cell proliferation assay.

Molt-4 cells = experiment: Thiazolyl blue cell proliferation assay in Molt-4 cells; details: Homo sapiens, Molt-4 acute lymphocytic leukemia cells, 72 hours, read-out: IC50 (nM) for inhibiting the proliferation of Molt-4 cells
Text: as §1
3) Study on the proliferation inhibition effects induced by the compounds of the present disclosure designed based on ABT199/263 against BCL-XL-dependent Molt-4 cells:
as §2, with “follows: Molt-4” for “follows: RS4;11”, “of 2×10^4” for “of 3×10^4”, “in 180” for “in 90”, “serum-containing RPMI 1640” for “serum-containing RPMI-1640”, “for 72” for “for 48”, “at 20” for “at 10”

[1] = tested on: Hedgehog (Hh) signaling pathway; experiment: Dual-luciferase reporter assay of Hedgehog activity in Light II cells; details: SAG stimulation, 36 h, dual-luciferase assay reporter kit, read-out: IC50 (nM) in Light II cells (inhibiting Hedgehog activity)
Method: Determination of the IC50 Values of Compounds Inhibiting Hedgehog Activity—Dual-Luciferase Reporter Assay:
Light II cells were NIH3T3 cell lines that stably express the Gli-luciferase and TK-renilla reporters. They were cultured with DMEM medium containing 10% (v/v) fetal bovine serum (FBS), 0.4 mg/ml G418, 0.15 mg/ml bleomycin (Zeocin), and penicillin/streptomycin at 37° C. in an incubator with 5% CO2. Light II cells in the logarithmic growth phase were seeded at a density of 2.5×10^4 cells/well in a 96-well plate. After 24h incubation, the cells were subjected to treatment with SAG with or without different concentrations of the compounds of the present disclosure for 36 h. After that, the Hedgehog activity was measured using the dual fluorescence reporter kit according to its instructions. The experiment had 3 replicates per group and was repeated at least three times.

MV4;11 cells = experiment: Thiazolyl blue cell proliferation assay in MV4;11 cells; details: Homo sapiens, MV4;11 myeloid monocytic leukemia cells, 48 hours, read-out: IC50 (nM) for inhibiting the proliferation of MV4;11 cells
Text: as §1
2) Study on the proliferation inhibition effects induced by the compounds of the present disclosure designed based on ABT199/263 against BCL-XL-dependent MV4;11 cells:
as §2, with “MV4;11” for “RS4;11”, “2×10^4” for “3×10^4”, “IMDM” for “RPMI-1640”, “µL/well” for “μL/well”

| SMILES | IC50 (RS4;11 cells) | IC50 (Molt-4 cells) | IC50 [1] | IC50 (MV4;11 cells) |
| --- | --- | --- | --- | --- |
| CC1(C)CCC(CN2CCN(c3ccc(C(=O)NS(=O)(=O)c4ccc(NC[C@H]5CC[C@H](N6CCN(Cc7cc(Br)c8c(c7)C(=O)N(C7CCC(=O)NC7=O)C8)CC6)CC5)c(S(=O)(=O)C(F)(F)F)c4)c(Oc4cnc5[nH]ccc5c4)c3)CC2)=C(c2ccc(Cl)cc2)C1 (stereo partly drawn) [BCL-03182, 2-((1H-pyrrolo[2,3-b]pyridin-5-yl)oxy)-N-((4-((((trans)-4-(4-((7-bromo-2-(2,6-dioxopiperidin-3-yl)-3-oxoisoindolin-5-yl)methyl)piperazin-1-yl)cyclohexyl)methyl)amino)-3-((trifluoromethyl)sulfonyl)phenyl)sulfonyl)-4-(4-((4′-chloro-5,5-dimethyl-3,4,5,6-tetrahydro-[1,1′-biphenyl]-2-yl)methyl)piperazin-1-yl)benzamide] | < 20 nM | < 10 nM | – | < 20 nM |
| CC1(C)CCC(CN2CCN(c3ccc(C(=O)NS(=O)(=O)c4ccc(NC[C@H]5CC[C@H](N6CCN(Cc7ccc8c(c7)C(=O)N(C7CCC(=O)NC7=O)C8=O)CC6)CC5)c(S(=O)(=O)C(F)(F)F)c4)c(Oc4cnc5[nH]ccc5c4)c3)CC2)=C(c2ccc(Cl)cc2)C1 (stereo partly drawn) [BCL-03185, 2-((1H-pyrrolo[2,3-b]pyridin-5-yl)oxy)-4-(4-((4′-chloro-5,5-dimethyl-3,4,5,6-tetrahydro-[1,1′-biphenyl]-2-yl)methyl)piperazin-1-yl)-N-((4-((((trans)-4-(4-((2-(2,6-dioxopiperidin-3-yl)-1,3-dioxoisoindolin-5-yl)methyl)piperazin-1-yl)cyclohexyl)methyl)amino)-3-((trifluoromethyl)sulfonyl)phenyl)sulfonyl)benzamide] | < 20 nM | < 10 nM | – | < 20 nM |
| C[C@H]1CN([C@H]2CC[C@@H](CNc3ccc(S(=O)(=O)NC(=O)c4ccc(N5CCN(CC6=C(c7ccc(Cl)cc7)CC(C)(C)CC6)CC5)cc4Oc4cnc5[nH]ccc5c4)cc3[N+](=O)[O-])CC2)CCN1Cc1ccc2c(c1)C(=O)N(C1CCC(=O)NC1=O)C2=O (stereo partly drawn) [BCL-03190, 2-((1H-pyrrolo[2,3-b]pyridin-5-yl)oxy)-4-(4-((4′-chloro-5,5-dimethyl-3,4,5,6-tetrahydro-[1,1′-biphenyl]-2-yl)methyl)piperazin-1-yl)-N-((4-((((cis)-4-((3S)-4-((2-(2,6-dioxopiperidin-3-yl)-1,3-dioxoisoindolin-5-yl)methyl)-3-methylpiperazin-1-yl)cyclohexyl)methyl)amino)-3-nitrophenyl)sulfonyl)benzamide] | < 20 nM | < 10 nM | – | < 20 nM |
| Cc1ncsc1-c1ccc([C@H](C)NC(=O)[C@@H]2C[C@@H](O)CN2C(=O)[C@@H](NC(=O)CCCCCC(=O)N2CCN(CC[C@H](CSc3ccccc3)Nc3ccc(S(=O)(=O)NC(=O)c4ccc(N5CCN(CC6=C(c7ccc(Cl)cc7)CCC(C)(C)C6)CC5)cc4)cc3S(=O)(=O)C(F)(F)F)CC2)C(C)(C)C)cc1 [DT2216, reference compound] | 81 ± 24.9 nM | 17.3 ± 9.57 nM | – | 165 ± 70.7 nM |

More lines, now with the values ahead:

| IC50 (RS4;11 cells) | IC50 (Molt-4 cells) | IC50 [1] | IC50 (MV4;11 cells) | SMILES |
| --- | --- | --- | --- | --- |
| < 20 nM | < 10 nM | < 10 nM | < 20 nM | C[C@H]1CN([C@H]2CC[C@@H](CNc3ccc(S(=O)(=O)NC(=O)c4ccc(N5CCN(CC6=C(c7ccc(Cl)cc7)CC(C)(C)CC6)CC5)cc4Oc4cnc5[nH]ccc5c4)cc3[N+](=O)[O-])CC2)CCN1Cc1ccc2c(c1)CN(C1CCC(=O)NC1=O)C2=O (stereo partly drawn) [BCL-03165, 2-((1H-pyrrolo[2,3-b]pyridin-5-yl)oxy)-4-(4-((4′-chloro-5,5-dimethyl-3,4,5,6-tetrahydro-[1,1′-biphenyl]-2-yl)methyl)piperazin-1-yl)-N-((4-((((cis)-4-((3S)-4-((2-(2,6-dioxopiperidin-3-yl)-1-oxoisoindolin-5-yl)methyl)-3-methylpiperazin-1-yl)cyclohexyl)methyl)amino)-3-nitrophenyl)sulfonyl)benzamide] |
| < 20 nM | < 10 nM | < 10 nM | < 20 nM | C[C@H]1CN([C@H]2CC[C@H](CNc3ccc(S(=O)(=O)NC(=O)c4ccc(N5CCN(CC6=C(c7ccc(Cl)cc7)CC(C)(C)CC6)CC5)cc4Oc4cnc5[nH]ccc5c4)cc3[N+](=O)[O-])CC2)CCN1Cc1ccc2c(c1)CN(C1CCC(=O)NC1=O)C2=O (stereo partly drawn) [BCL-03166, 2-((1H-pyrrolo[2,3-b]pyridin-5-yl)oxy)-4-(4-((4′-chloro-5,5-dimethyl-3,4,5,6-tetrahydro-[1,1′-biphenyl]-2-yl)methyl)piperazin-1-yl)-N-((4-((((trans)-4-((3S)-4-((2-(2,6-dioxopiperidin-3-yl)-1-oxoisoindolin-5-yl)methyl)-3-methylpiperazin-1-yl)cyclohexyl)methyl)amino)-3-nitrophenyl)sulfonyl)benzamide] |
| < 20 nM | < 10 nM | < 10 nM | < 20 nM | C[C@@H]1CN([C@H]2CC[C@@H](CNc3ccc(S(=O)(=O)NC(=O)c4ccc(N5CCN(CC6=C(c7ccc(Cl)cc7)CC(C)(C)CC6)CC5)cc4Oc4cnc5[nH]ccc5c4)cc3[N+](=O)[O-])CC2)CCN1Cc1ccc2c(c1)CN(C1CCC(=O)NC1=O)C2=O (stereo partly drawn) [BCL-03167, 2-((1H-pyrrolo[2,3-b]pyridin-5-yl)oxy)-4-(4-((4′-chloro-5,5-dimethyl-3,4,5,6-tetrahydro-[1,1′-biphenyl]-2-yl)methyl)piperazin-1-yl)-N-((4-((((cis)-4-((3R)-4-((2-(2,6-dioxopiperidin-3-yl)-1-oxoisoindolin-5-yl)methyl)-3-methylpiperazin-1-yl)cyclohexyl)methyl)amino)-3-nitrophenyl)sulfonyl)benzamide] |

Reference: patent US20250154146A1, “PROTEIN DEGRADERS DEVELOPED ON BASIS OF BCL-2 FAMILY PROTEIN LIGAND COMPOUNDS AND USE THEREOF” (ShanghaiTech University, priority 2022, published 2025)
